Measurements taken from patent US20090137664A1, “SAURURUS CERNUUS COMPOUNDS THAT INHIBIT CELLULAR RESPONSES TO HYPOXIA” (priority 2003, published 2009).

How the values were obtained:
Format in all cases: cell-based
[1] = test system: UACC-257; assay: NCI in vitro cell line screen (SRB), Melanoma UACC-257
Protocol: (§1) For exemplary purposes, an embodiment of the present invention was tested for activity with respect to certain cancer cell lines. The following Tables show results from in vitro 60-cell line antitumor testing from the US National Cancer Institute Developmental Therapeutics Program (NCI-DTP) on compound 2. The testing was in connection with the NCI's In Vitro Cell Line Screening Project (IVCLSP). Detailed information regarding the experiments and their interpretation is available from the NCI.

[2] = test system: K-562; assay: NCI in vitro cell line screen (SRB), Leukemia K-562
Protocol: as §1

[3] = test system: HOP-62; assay: NCI in vitro cell line screen (SRB), Non-Small Cell Lung Cancer HOP-62
Protocol: as §1

[4] = test system: SF-268; assay: NCI in vitro cell line screen (SRB), CNS Cancer SF-268
Protocol: as §1

[5] = test system: LOX IMVI; assay: NCI in vitro cell line screen (SRB), Melanoma LOX IMVI
Protocol: as §1

[6] = test system: MDA-MB-231/ATCC; assay: NCI in vitro cell line screen (SRB), Breast Cancer MDA-MB-231/ATCC
Protocol: as §1

[7] = test system: RXF 393; assay: NCI in vitro cell line screen (SRB), Renal Cancer RXF 393
Protocol: as §1

[8] = test system: RPMI-8226; assay: NCI in vitro cell line screen (SRB), Leukemia RPMI-8226
Protocol: as §1

[9] = test system: NCI-H226; assay: NCI in vitro cell line screen (SRB), Non-Small Cell Lung Cancer NCI-H226
Protocol: as §1

[10] = test system: PC-3; assay: NCI in vitro cell line screen (SRB), Prostate Cancer PC-3
Protocol: as §1

[11] = test system: HCT-15; assay: NCI in vitro cell line screen (SRB), Colon Cancer HCT-15
Protocol: as §1

[12] = Homo sapiens, read-out: LC50 (the source's name)

COc1ccc([C@@H](O)[C@@H](C)Oc2ccc([C@H]3O[C@H](c4ccc(O[C@H](C)[C@H](O)c5ccc6c(c5)OCO6)c(OC)c4)[C@H](C)[C@H]3C)cc2OC)cc1OC [Compound 2, manassantin B]
TGI [1]: >1.00E−4 Molar | GI50 ([1]; Homo sapiens): 1090 nM | CC50 [1, 12]: > 100 µM | Mean Optical Densities ([1]; Log10 Concentration −4.0 Molar): 1.165 | Percent Growth ([1]; Log10 Concentration −4.0 Molar): 12% | Mean Optical Densities ([1]; Log10 Concentration −5.0 Molar): 1.270 | Percent Growth ([1]; Log10 Concentration −5.0 Molar): 23% | Mean Optical Densities ([1]; Log10 Concentration −6.0 Molar): 1.558 | Percent Growth ([1]; Log10 Concentration −6.0 Molar): 51% | Mean Optical Densities ([1]; Log10 Concentration −7.0 Molar): 1.565 | Percent Growth ([1]; Log10 Concentration −7.0 Molar): 52% | Mean Optical Densities ([1]; Log10 Concentration −8.0 Molar): 1.673 | Percent Growth ([1]; Log10 Concentration −8.0 Molar): 62% | TGI [2]: >1.00E−4 Molar | LC50 (concentration killing 50% of cells) ([2]; Homo sapiens, K562): > 100 µM | Mean Optical Densities ([2]; Log10 Concentration −4.0 Molar): 0.327 | Percent Growth ([2]; Log10 Concentration −4.0 Molar): 28% | Mean Optical Densities ([2]; Log10 Concentration −5.0 Molar): 0.394 | Percent Growth ([2]; Log10 Concentration −5.0 Molar): 37% | Mean Optical Densities ([2]; Log10 Concentration −6.0 Molar): 0.561 | Percent Growth ([2]; Log10 Concentration −6.0 Molar): 61% | Mean Optical Densities ([2]; Log10 Concentration −7.0 Molar): 0.500 | Percent Growth ([2]; Log10 Concentration −7.0 Molar): 53% | Mean Optical Densities ([2]; Log10 Concentration −8.0 Molar): 0.470 | Percent Growth ([2]; Log10 Concentration −8.0 Molar): 48% | TGI [3]: >1.00E−4 Molar | GI50 ([3]; Homo sapiens): 57.3 µM | CC50 [3, 12]: > 100 µM | Mean Optical Densities ([3]; Log10 Concentration −4.0 Molar): 0.739 | Percent Growth ([3]; Log10 Concentration −4.0 Molar): 44% | Mean Optical Densities ([3]; Log10 Concentration −5.0 Molar): 0.893 | Percent Growth ([3]; Log10 Concentration −5.0 Molar): 68% | Mean Optical Densities ([3]; Log10 Concentration −6.0 Molar): 0.971 | Percent Growth ([3]; Log10 Concentration −6.0 Molar): 81% | Mean Optical Densities ([3]; Log10 Concentration −7.0 Molar): 0.982 | Percent Growth ([3]; Log10 Concentration −7.0 Molar): 82% | Mean Optical Densities ([3]; Log10 Concentration −8.0 Molar): 0.924 | Percent Growth ([3]; Log10 Concentration −8.0 Molar): 73% | TGI [4]: >1.00E−4 Molar | GI50 ([4]; Homo sapiens): 4.96 µM | CC50 [4, 12]: > 100 µM | Mean Optical Densities ([4]; Log10 Concentration −4.0 Molar): 0.685 | Percent Growth ([4]; Log10 Concentration −4.0 Molar): 27% | Mean Optical Densities ([4]; Log10 Concentration −5.0 Molar): 0.811 | Percent Growth ([4]; Log10 Concentration −5.0 Molar): 40% | Mean Optical Densities ([4]; Log10 Concentration −6.0 Molar): 1.135 | Percent Growth ([4]; Log10 Concentration −6.0 Molar): 73% | Mean Optical Densities ([4]; Log10 Concentration −7.0 Molar): 1.238 | Percent Growth ([4]; Log10 Concentration −7.0 Molar): 83% | Mean Optical Densities ([4]; Log10 Concentration −8.0 Molar): 1.213 | Percent Growth ([4]; Log10 Concentration −8.0 Molar): 81% | TGI [5]: >1.00E−4 Molar | GI50 ([5]; Homo sapiens): 2190 nM | CC50 [5, 12]: > 100 µM | Mean Optical Densities ([5]; Log10 Concentration −4.0 Molar): 0.353 | Percent Growth ([5]; Log10 Concentration −4.0 Molar): 12% | Mean Optical Densities ([5]; Log10 Concentration −5.0 Molar): 0.396 | Percent Growth ([5]; Log10 Concentration −5.0 Molar): 18% | Mean Optical Densities ([5]; Log10 Concentration −6.0 Molar): 0.703 | Percent Growth ([5]; Log10 Concentration −6.0 Molar): 66% | Mean Optical Densities ([5]; Log10 Concentration −7.0 Molar): 0.743 | Percent Growth ([5]; Log10 Concentration −7.0 Molar): 73% | Mean Optical Densities ([5]; Log10 Concentration −8.0 Molar): 0.778 | Percent Growth ([5]; Log10 Concentration −8.0 Molar): 78% | TGI [6]: 4.74E−5 Molar | GI50 ([6]; Homo sapiens): 968 nM | CC50 [6, 12]: > 100 µM | Mean Optical Densities ([6]; Log10 Concentration −4.0 Molar): 0.384 | Percent Growth ([6]; Log10 Concentration −4.0 Molar): −7% | Mean Optical Densities ([6]; Log10 Concentration −5.0 Molar): 0.457 | Percent Growth ([6]; Log10 Concentration −5.0 Molar): 14% | Mean Optical Densities ([6]; Log10 Concentration −6.0 Molar): 0.569 | Percent Growth ([6]; Log10 Concentration −6.0 Molar): 50% | Mean Optical Densities ([6]; Log10 Concentration −7.0 Molar): 0.630 | Percent Growth ([6]; Log10 Concentration −7.0 Molar): 69% | Mean Optical Densities ([6]; Log10 Concentration −8.0 Molar): 0.640 | Percent Growth ([6]; Log10 Concentration −8.0 Molar): 72% | TGI [7]: >1.00E−4 Molar | GI50 ([7]; Homo sapiens): > 100 µM | CC50 [7, 12]: > 100 µM | Mean Optical Densities ([7]; Log10 Concentration −4.0 Molar): 0.930 | Percent Growth ([7]; Log10 Concentration −4.0 Molar): 53% | Mean Optical Densities ([7]; Log10 Concentration −5.0 Molar): 0.993 | Percent Growth ([7]; Log10 Concentration −5.0 Molar): 62% | Mean Optical Densities ([7]; Log10 Concentration −6.0 Molar): 1.170 | Percent Growth ([7]; Log10 Concentration −6.0 Molar): 85% | Mean Optical Densities ([7]; Log10 Concentration −7.0 Molar): 1.267 | Percent Growth ([7]; Log10 Concentration −7.0 Molar): 98% | Mean Optical Densities ([7]; Log10 Concentration −8.0 Molar): 1.226 | Percent Growth ([7]; Log10 Concentration −8.0 Molar): 92% | TGI [8]: 1.45E−5 Molar | GI50 ([8]; Homo sapiens): 337 nM | Mean Optical Densities ([8]; Log10 Concentration −4.0 Molar): 0.213 | Percent Growth ([8]; Log10 Concentration −4.0 Molar): −33% | Mean Optical Densities ([8]; Log10 Concentration −5.0 Molar): 0.356 | Percent Growth ([8]; Log10 Concentration −5.0 Molar): 6% | Mean Optical Densities ([8]; Log10 Concentration −6.0 Molar): 0.532 | Percent Growth ([8]; Log10 Concentration −6.0 Molar): 34% | Mean Optical Densities ([8]; Log10 Concentration −7.0 Molar): 0.737 | Percent Growth ([8]; Log10 Concentration −7.0 Molar): 67% | Mean Optical Densities ([8]; Log10 Concentration −8.0 Molar): 0.766 | Percent Growth ([8]; Log10 Concentration −8.0 Molar): 72% | TGI [9]: 1.77E−5 Molar | GI50 ([9]; Homo sapiens): 483 nM | LC50 (concentration killing 50% of cells) ([9]; Homo sapiens): > 100 µM | Mean Optical Densities ([9]; Log10 Concentration −4.0 Molar): 0.559 | Percent Growth ([9]; Log10 Concentration −4.0 Molar): −16% | Mean Optical Densities ([9]; Log10 Concentration −5.0 Molar): 0.678 | Percent Growth ([9]; Log10 Concentration −5.0 Molar): 5% | Mean Optical Densities ([9]; Log10 Concentration −6.0 Molar): 0.765 | Percent Growth ([9]; Log10 Concentration −6.0 Molar): 36% | Mean Optical Densities ([9]; Log10 Concentration −7.0 Molar): 0.885 | Percent Growth ([9]; Log10 Concentration −7.0 Molar): 79% | Mean Optical Densities ([9]; Log10 Concentration −8.0 Molar): 0.822 | Percent Growth ([9]; Log10 Concentration −8.0 Molar): 57% | TGI [10]: 1.77E−5 Molar | GI50 ([10]; Homo sapiens): 2370 nM | CC50 [10, 12]: > 100 µM | Mean Optical Densities ([10]; Log10 Concentration −4.0 Molar): 0.152 | Percent Growth ([10]; Log10 Concentration −4.0 Molar): −30% | Mean Optical Densities ([10]; Log10 Concentration −5.0 Molar): 0.268 | Percent Growth ([10]; Log10 Concentration −5.0 Molar): 10% | Mean Optical Densities ([10]; Log10 Concentration −6.0 Molar): 0.588 | Percent Growth ([10]; Log10 Concentration −6.0 Molar): 74% | Mean Optical Densities ([10]; Log10 Concentration −7.0 Molar): 0.668 | Percent Growth ([10]; Log10 Concentration −7.0 Molar): 90% | Mean Optical Densities ([10]; Log10 Concentration −8.0 Molar): 0.665 | Percent Growth ([10]; Log10 Concentration −8.0 Molar): 89% | TGI [11]: >1.00E−4 Molar | GI50 ([11]; Homo sapiens): 4.91 µM | CC50 [11, 12]: > 100 µM | Mean Optical Densities ([11]; Log10 Concentration −4.0 Molar): 0.319 | Percent Growth ([11]; Log10 Concentration −4.0 Molar): 26% | Mean Optical Densities ([11]; Log10 Concentration −5.0 Molar): 0.400 | Percent Growth ([11]; Log10 Concentration −5.0 Molar): 38% | Mean Optical Densities ([11]; Log10 Concentration −6.0 Molar): 0.660 | Percent Growth ([11]; Log10 Concentration −6.0 Molar): 77% | Mean Optical Densities ([11]; Log10 Concentration −7.0 Molar): 0.691 | Percent Growth ([11]; Log10 Concentration −7.0 Molar): 82% | Mean Optical Densities ([11]; Log10 Concentration −8.0 Molar): 0.683 | Percent Growth ([11]; Log10 Concentration −8.0 Molar): 80%
